# Measured values as given in patent US20090318396A1, “CORTICOSTEROID LINKED BETA-AGONIST COMPOUNDS FOR USE IN THERAPY” (priority 2008, published 2009).
# Columns and labels:
# [1] = system: tobacco-smoke-induced airway inflammation; test: Tobacco smoke model of airway inflammation in mice; assay type: in vivo, female C3H mice; conditions: for IL-1α / MIP-1α / Neutrophils: mean ± s.e.m.
# Experimental: Vehicle and test articles are delivered by intratracheal instillation in 10% ethanol water to animals anesthetized with 3-5% isoflurane (n=8 animals per test article group). All compounds will be delivered on a daily (5 days per week) schedule for 3 weeks during the smoke exposures. Mice were exposed to cigarette smoke for 6 hours per day, 5 days per week for 3 weeks, in H1000 or H2000 chambers. Type 2R4F research cigarettes (Kentucky Tobacco Research and Development Center) were used in the study. Total particulate material (TPM) exposure was kept at […] for the first week to allow animals to reduce adverse effects during adaptation to smoke exposure. TPM exposure was maintained between 100 and 250 mg TPM/m^3 during the remainder of the study. After 3 weeks, animals were euthanized and bronchoalveolar lavage fluid was obtained for cell differentials and cytokine analysis by Luminex multiplex immunoassay.
# [2] = system: airway epithelial cells cultured at an air-liquid interface; test: Drug metabolism in airway epithelial cells cultured at an air-liquid interface; assay type: in vitro ADME, human
# Experimental: Cryopreserved passage 1 cells were cultured in bronchial epithelial growth medium (Fulcher, M. L., et al., Well-differentiated human airway epithelial cell cultures. Methods Mol Med, 2005. 107: p. 183-206) on 100 mm Type I collagen-coated plastic dishes. At 70% confluence, passage 2 cells were transferred to type IV collagen-coated Millicell membranes (Millipore, Bedford, Mass.) in medium that supports growth at an air-liquid-interface (ALI) (Fulcher er al., 2005). Cells were maintained at an ALI and allowed to differentiate fully for approximately 28 days. […] Approximately 1 hour prior to the start of the experiment, the apical surfaces of the cells were washed once again with PBS and the basolateral media replaced with fresh ALI media. At time=0 hrs, the test article was diluted from a 10 mM stock solution in DMSO to a 40 μM solution in ALI media/PBS/10% EtOH/water (v/v). 50 μl of the resulting 40 μM solution was immediately added to the apical surface of the cells. 200 μl of the dosing solution was also added to 800 μl of 100% ACN and frozen immediately on dry ice. The remaining dosing solution was placed in the incubator with the cells. The dosing solution and cells were allowed to incubate for 10, 120 and 240 min at which points the apical surfaces of cells from 4 millicell cell culture inserts (n=4) were washed with 3×100 μl of PBS or 10% EtOH/water (v/v) per millicell. […]
# [3] = Drug levels in plasma, BALF and lung after IT administration in the rat; conditions: IT
# Experimental: Compounds of Examples 52 and 83 were formulated for intratracheal (IT) dosing in 10% EtOH, 90% Sterile Water, and dosed in male Sprague-Dawley rats at 3 mg/kg (Example 52) and 1 mg/kg (Example 83). Each dosing group consisted of 3 male, naïve purebred Sprague-Dawley rats. At dosing, the animals weighed ˜0.30 kg. The animals were fasted overnight prior to dose administration and up to 2 hr after dosing. The compounds were administered IT using a Penn Century Microsprayer (Model 1A-1B).
# Blood samples were collected at 0.5, 2, and 4 hours post-dose. Each blood sample (0.5-0.6 mL per sample) was collected via the orbital sinus (following anesthesia for BAL procedure) into tubes containing EDTA anti-coagulant into containers surrounded by dry ice at 0.5, 2 and 4 hr (mean, n=6). Blood samples were stored at −20±5° C. until shipped for analysis.
# The animals were anesthetized with an intramuscular (IM) injection of a ketamine/xylazine/acepromazine (80/10/2 mg/kg) cocktail at a dose volume of 1.1 mL/kg. A cannula (modified Bard® infant feeding tube) was inserted into the trachea. Warmed sterile saline was injected into the lungs. The lungs were gently massaged by palpation of the chest for approximately 45 seconds. The fluid (BALF) was recovered and placed on ice. The procedure was repeated two more times, and all three BALF samples pooled. The fluid was centrifuged under refrigerated conditions at 350 g for 10 minutes. The supernatant and cell pellet were collected and stored at approximately −70° C. until shipped for analysis.
# Immediately following each BAL procedure, the lungs from each animal were removed, blotted dry, weighed, and stored frozen at −70° C. until shipped for analysis.
# An LC/MS/MS method was used to measure the concentration of compound in plasma.
# Add 3×w/v of 1×PBS buffer (90:10-PBS:ACN) to each lung tissue. Homogenize the sample w/Polytron (PT1200) and take 50 uL of supernatant and inject to LC/MSMS.
# An aliquot of 50 μL of each plasma sample was treated with 100 mL of acetonitrile (ACN) containing internal standard. After the protein precipitation, an aliquot of 100 μL of the supernatant was transferred to a clean 96-well plate and mixed with 100 μL of water. An aliquot of 30 μL of the above solution was injected to the TSQ Ultra Quantum LC/MS/MS system.
# A HyPurity C18 HPLC column (30×2.1 mm, 5μ) from ThermoHypersil (Part #: 22105-032130) was used. Mobile phase A contained 1% acetonitrile in 10 mM ammonium formate aqueous solution with 1% formic acid. Mobile phase B contained 80% acetonitrile in 10 mM ammonium formate with 1% formic acid. An Agilent 1100 series binary pump (P/N G1312A Bin Pump) was used for elution and separation. HTS Pal autosampler from LEAP Technologies, Carrboro, N.C. was used.
# TSQ Quantum Ultra triple quadrupole mass spectrometer from Thermo Finnigan, San Jose, Calif. was used in selective reaction monitoring (SRM) operation mode, Tune file:
compound,measurement,setting,value
"CC[N+](CC)(CC(=O)OCC(=O)[C@@]12O[C@H](C3CCCCC3)O[C@@H]1C[C@H]1[C@@H]3CCC4=CC(=O)C=C[C@]4(C)[C@H]3[C@@H](O)C[C@@]12C)Cc1cc(C(O)CNCCCCCCOCCCCc2ccccc2)ccc1OP(=O)(O)O.[Cl-] (stereo partly drawn) [Example 52, [5-[1-hydroxy-2-[6-(4-phenylbutoxy)hexylamino]ethyl]-2-phosphonooxybenzyl]-(diethyl)-[[11β,16α]-[[15,16-((R)-cyclohexylmethylene)bis(oxy)]-11-hydroxypregna-1,4-diene-3,20-dion-21-yl]carbonylmethyl]ammonium chloride]",IL-1α,[1]; 0.6 mg/kg i.t.,2.54 ± 0.59 pg/mL
same,MIP-1α,[1]; 0.6 mg/kg i.t.,4.34 ± 1.15 pg/mL
same,Neutrophils,[1]; 0.6 mg/kg i.t.,7.7 ± 1.8 ×10^4/ml
same,IL-1α,[1]; 1.0 mg/kg i.t.,2.74 ± 0.64 pg/mL
same,MIP-1α,[1]; 1.0 mg/kg i.t.,7.0 ± 1.40 pg/mL
same,Neutrophils,[1]; 1.0 mg/kg i.t.,8.5 ± 1.3 ×10^4/ml
same,Inhibition of tobacco-smoke-induced IL-1α and MIP-1α production,"[1]; p<0.05 versus vehicle control at 1.0 and 0.6 mg/kg doses, 20-plex Luminex assay",exhibited inhibition
same,amount of the parent compound over time,[2]; apical and cellular compartments,decreased over time
same,amount of salmeterol and desciclesonide over time,[2]; cellular compartment,increased in the cellular compartment
same,Metabolism in the lung following IT administration,[3],metabolized to Salmeterol and Desisobutyryl Ciclesonide in the lung
